21 compounds from patent US7723358B2, “Aroyl-O-piperidine derivatives for the treatment of diabetes-related problems” (Merck Patent GmbH, priority 2004, dated 2010) can be followed below.

Assay [1] has as its system apo B secretion in HepG2 cells. The assay can be described thus: Secretion of apo B in the HepG2 human cell line (sandwich-ELISA). It is filed as cell-based. To be noted: 24 hours incubation, culture supernatant, read-out: IC50, concentration that produces a 50% inhibition of apo B secretion in the HepG2 cells. How it is done:
Analysis of the Secretion of apo B in the HepG2 Human Cell Line:
The activity of a compound according to the invention can be evaluated by measuring the inhibition of apo B secretion in HepG2 cells.
The HepG2 cells (ECACC—No. 85011430) are used as model in the study of the in vitro hepatic secretion of lipoproteins (Dixon J. and Ginsberg H., J., Lipid. Res., 1993, 34, 167-179).
The HepG2 cells are cultured in Dulbecco's modified Eagle's medium comprising 10% foetal calf serum (DMEM and FBS—Gibco) in 96-well plates under an atmosphere of 5% carbon dioxide for 24 hours (about 70% confluence).
The test compounds are dissolved at a concentration of 2 or 10 mM in dimethyl sulfoxide (DMSO). Serial dilutions (1:3.16) are made in DMSO and are added (1:200—Robot Multimek Beckman) to the growth medium (200 μL) and then finally incubated for 24 hours in the various wells containing the HepG2 cells.
The 24-hour culture supernatant diluted to 1:5 (phosphate-buffered saline:PBS comprising 1% bovine serum albumin) is tested according to a sandwich-ELISA method specific for human apo B.
The results are expressed in terms of IC50, i.e. the concentration that produces a 50% inhibition of apo B secretion in the HepG2 cells.
Background: An ELISA detects its analyte on a solid surface through an enzyme-linked reagent.

Assay [2] addresses T1, microsomal triglyceride transfer protein (MTP) (Mesocricetus auratus, UniProt P55158).
T1 construct: The supernatant comprising the soluble MTP is dialysed against Tris/HCl 150 mM; from tissue; host or cells: golden hamster liver microsomes, deoxycholate-solubilised supernatant, dialysed
T1 sequence (P55158 19-895): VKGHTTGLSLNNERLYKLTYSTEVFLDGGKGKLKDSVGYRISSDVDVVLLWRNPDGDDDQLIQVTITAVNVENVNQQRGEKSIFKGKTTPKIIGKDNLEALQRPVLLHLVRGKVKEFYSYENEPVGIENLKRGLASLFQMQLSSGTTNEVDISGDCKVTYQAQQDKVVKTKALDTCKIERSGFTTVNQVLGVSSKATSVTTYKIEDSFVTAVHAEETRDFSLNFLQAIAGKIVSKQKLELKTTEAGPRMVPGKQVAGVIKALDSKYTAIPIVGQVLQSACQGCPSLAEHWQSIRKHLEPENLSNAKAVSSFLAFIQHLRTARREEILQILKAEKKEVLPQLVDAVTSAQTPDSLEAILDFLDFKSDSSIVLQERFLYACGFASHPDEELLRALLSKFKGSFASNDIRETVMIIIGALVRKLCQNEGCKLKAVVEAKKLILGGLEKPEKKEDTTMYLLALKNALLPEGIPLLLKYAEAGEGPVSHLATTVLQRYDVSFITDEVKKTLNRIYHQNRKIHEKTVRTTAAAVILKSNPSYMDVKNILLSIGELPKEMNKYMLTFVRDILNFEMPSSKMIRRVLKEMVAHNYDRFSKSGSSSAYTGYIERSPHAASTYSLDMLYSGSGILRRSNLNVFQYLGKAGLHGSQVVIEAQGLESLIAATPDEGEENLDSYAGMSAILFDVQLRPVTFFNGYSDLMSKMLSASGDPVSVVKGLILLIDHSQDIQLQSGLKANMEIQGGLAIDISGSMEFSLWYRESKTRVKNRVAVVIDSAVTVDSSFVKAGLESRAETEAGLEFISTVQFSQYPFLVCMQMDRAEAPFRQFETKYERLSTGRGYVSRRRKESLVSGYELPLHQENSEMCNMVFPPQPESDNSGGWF
The assay can be described thus: Inhibition of MTP activity: transfer of [3H]-triolein from donor liposomes to biotinylated LDL, SPA. It is filed as biochemical. To be noted: MTP from golden hamster liver; incubation 18-24 hours at 37° C.; read-out: IC50, concentration that allows a 50% inhibition of MTP. Put shortly:
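Soluble MTP was extracted with deoxycholate from golden hamster liver microsomes. It was incubated with [3H]-triolein/phosphatidylcholine donor liposomes, biotinylated LDL acceptors and compound in DMSO in HEPES/NaCl/BSA buffer, pH 7.4, for 18-24 h at 37° C. Transfer was read with streptavidin SPA beads, and IC50 was taken as 50% inhibition of transfer.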

Molecules are shown by their SMILES.

For the compound `Cc1cccc(C(=O)Nc2cccc(OC3CCN(C(=O)OCC(C)C)CC3)c2)c1-c1ccc(OC(F)(F)F)cc1` [Example 8, 2-methylpropyl 4-[3-[[[6-methyl-4′-(trifluoromethoxy)[1,1-biphenyl]-2-yl]carbonyl]amino]phenoxy]-1-piperidine-carboxylate], the IC50 amounted to 25.2 nM in assay [1] and 55.5 nM in assay [2].

For the compound `Cc1cccc(C(=O)Nc2cccc(OC3CCN(C(=O)Oc4ccc([N+](=O)[O-])cc4)CC3)c2)c1-c1ccc(OC(F)(F)F)cc1` [Example 9, 4-nitrophenyl 4-[3-[[[6-methyl-4′-(trifluoro-methoxy)[1,1′-biphenyl]-2-yl]carbonyl]-amino]phenoxy]-1-piperidinecarboxylate], the IC50 is 7.9 nM in assay [1] and 51.8 nM in assay [2].

Take `CSC(=O)N1CCC(Oc2cccc(NC(=O)c3cccc(C)c3-c3ccc(OC(F)(F)F)cc3)c2)CC1` [Example 10]: the IC50 in assay [1] was 12.2 nM; in assay [2], 39.2 nM.

Consider `CCNC(=O)N1CCC(Oc2cccc(NC(=O)c3cccc(C)c3-c3ccc(OC(F)(F)F)cc3)c2)CC1` [Example 12, N-ethyl-4-[3-[[[6-methyl-4′-(trifluoro-methoxy)[1,1′-biphenyl]-2-yl]carbonyl]-amino]phenoxy]-1-piperidinecarboxamide], for which the IC50 worked out at 53 nM in assay [1] and 86.9 nM in assay [2].

Turning to `Cc1cccc(C(=O)Nc2cccc(OC3CCN(S(=O)(=O)C(C)C)CC3)c2)c1-c1ccc(OC(F)(F)F)cc1` [Example 14, 6-methyl-N-[3-[[1-[(1-methyl-ethyl)sulfonyl]-4-piperidinyl]oxy]phenyl]-4′-(trifluoromethoxy)[1,1′-biphenyl]-2-carboxamide], the figures for the IC50 in assay [1] and in assay [2] were 62.7 nM and 114 nM, respectively.

With `Cc1cccc(C(=O)Nc2cccc(OC3CCN(S(=O)(=O)c4ccccc4)CC3)c2)c1-c1ccc(OC(F)(F)F)cc1` [Example 15, 6-methyl-N-[3-[[1-(phenylsulfonyl)-4-piperidinyl]oxy]phenyl]-4′-(trifluoro-methoxy)[1,1′-biphenyl]-2-carboxamide], the IC50 amounted to 28.2 nM in assay [1] and 55.6 nM in assay [2].

On to `Cc1cccc(C(=O)Nc2cccc(OC3CCN(S(=O)(=O)Cc4ccccc4)CC3)c2)c1-c1ccc(OC(F)(F)F)cc1` [Example 16], for which the IC50 stood at 15.9 nM in assay [1] and 42.5 nM in assay [2].

As to `CCCCS(=O)(=O)N1CCC(Oc2cccc(NC(=O)c3cccc(C)c3-c3ccc(OC(F)(F)F)cc3)c2)CC1` [Example 22], the IC50 in assay [1] was found to be 12.7 nM; in assay [2], 45 nM.

With `COc1ccc(NC(=O)N2CCC(Oc3cccc(NC(=O)c4cccc(C)c4-c4ccc(OC(F)(F)F)cc4)c3)CC2)cc1` [Example 26], the IC50 was 75.8 nM in assay [1] and 72.8 nM in assay [2].

Take `COC(=O)c1ccccc1NC(=O)N1CCC(Oc2cccc(NC(=O)c3cccc(C)c3-c3ccc(OC(F)(F)F)cc3)c2)CC1` [Example 36, methyl 2-[[[4-[3-[[[6-methyl-4′-(trifluoro-methoxy)[1,1′-biphenyl]-2-yl]carbonyl]-amino]phenoxy]-1-piperidinyl]carbonyl]-amino]benzoate]: the figures for the IC50 in assay [1] and in assay [2] were 67.8 nM and 51.3 nM, respectively.

Turning to `Cc1cccc(C(=O)Nc2cccc(OC3CCN(C(=O)NCCc4ccccc4)CC3)c2)c1-c1ccc(OC(F)(F)F)cc1` [Example 40, 4-[3-[[[6-methyl-4′-(trifiuoromethoxy)[1,1′-biphenyl]-2-yl]carbonyl]amino]phenoxy]-N-(2-phenylethyl)-1-piperidinecarbox-amide], the results for the IC50 in assay [1] and in assay [2] were 13.7 nM and 69.1 nM, respectively.

Regarding `CCCCCCNC(=O)N1CCC(Oc2cccc(NC(=O)c3cccc(C)c3-c3ccc(OC(F)(F)F)cc3)c2)CC1` [Example 41, N-hexyl-4-[3-[[[6-methyl-4′-(trifluorometh-oxy)[1,1′-biphenyl]-2-yl]carbonyl]amino]-phenoxy]-1-piperidinecarboxamide], the IC50 in assay [1] is 33.1 nM; in assay [2], 45.5 nM.

On to `CCCCOC(=O)CNC(=O)N1CCC(Oc2cccc(NC(=O)c3cccc(C)c3-c3ccc(OC(F)(F)F)cc3)c2)CC1` [Example 44, butyl N-[[4-[3-[[[6-methyl-4′-(trifluorometh-oxy)[1,1′-biphenyl]-2-yl]carbonyl]amino]-phenoxy]-1-piperidinyl]carbonyl]glycinate], for which the IC50 turned out to be 7.4 nM in assay [1] and 171 nM in assay [2].

Turning to `COc1ccc(CNC(=O)N2CCC(Oc3cccc(NC(=O)c4cccc(C)c4-c4ccc(OC(F)(F)F)cc4)c3)CC2)cc1` [Example 52, N-[(4-methoxyphenyl)methyl]-4-[3-[[[6-methyl-4′-(trifluoromethoxy)[1,1′-biphenyl]-2-yl]carbonyl]amino]phenoxy]-1-piperidinecarboxamide], the results for the IC50 in assay [1] and in assay [2] were 66.3 nM and 195 nM, respectively.

With `COC(=O)c1ccc(NC(=O)N2CCC(Oc3cccc(NC(=O)c4cccc(C)c4-c4ccc(OC(F)(F)F)cc4)c3)CC2)cc1` [Example 55, methyl 4-[[[4-[3-[[[6-methyl-4′-(trifluoro-methoxy)[1,1′-biphenyl]-2-yl]carbonyl]-amino]phenoxy]-1-piperidinyl]carbonyl]-amino]benzoate], the IC50 in assay [1] turned out to be 46.6 nM; in assay [2] it was 208 nM.

Consider `Cc1cccc(C(=O)Nc2cccc(OC3CCN(C(=O)Nc4ccc5c(c4)OCO5)CC3)c2)c1-c1ccc(OC(F)(F)F)cc1` [Example 56, N-1,3-benzodioxol-5-yl-4-[3-[[[6-methyl-4′-(trifluoromethoxy)[1,1′-biphenyl]-2-yl]-carbonyl]amino]phenoxy]-1-piperidine-carboxamide], for which the IC50 in assay [1] is 37.6 nM; in assay [2] it was 146 nM.

As to `COC(=O)N1CCC(Oc2cccc(NC(=O)c3ccccc3-c3ccc(C(F)(F)F)cc3)c2)CC1` [Example 72, methyl 4-[3-[[[4′-(trifluoromethyl)[1,1′-biphenyl]-2-yl]carbonyl]amino]phenoxy]-1-piperidinecarboxylate], the IC50 in assay [1] was found to be 4.6 nM; in assay [2] it was 42.2 nM.

On to `COCCOC(=O)N1CCC(Oc2cccc(NC(=O)c3cccc(C)c3-c3ccc(OC(F)(F)F)cc3)c2)CC1` [Example 73, 2-methoxyethyl 4-[3-[[[6-methyl-4′-(trifluoromethoxy)[1,1′-biphenyl]-2-yl]-carbonyl]amino]phenoxy]-1-piperidine-carboxylate], for which the IC50 was determined as 1.6 nM in assay [1] and 33.3 nM in assay [2].

For `COCCOC(=O)N1CCC(Oc2cccc(NC(=O)c3ccccc3-c3ccc(OC(F)(F)F)cc3)c2)CC1` [Example 74], the IC50 turned out to be 83 nM in assay [1] and 110 nM in assay [2].

Regarding `COCCOC(=O)N1CCC(Oc2cccc(NC(=O)c3ccccc3-c3ccc(C(F)(F)F)cc3)c2)CC1` [Example 75, 2-methoxyethyl 4-[3-[[[4′-(trifluoromethyl)-[1,1′-biphenyl]-2-yl]carbonyl]amino]-phenoxy]-1 piperidinecarboxylate], the IC50 in assay [1] was 39.8 nM; in assay [2] it was 130 nM.

`COc1ccc(C(=O)N2CCC(Oc3cccc(NC(=O)c4cccc(C)c4-c4ccc(OC(F)(F)F)cc4)c3)CC2)cc1` [Example 98, N-[3-[[1-(4-methoxybenzoyl)-4-piperidin-yl]oxy]phenyl]-6-methyl-4′-(trifluorometh-oxy)[1,1′-biphenyl]-2-carboxamide]: the IC50 in assay [1] stood at 67.1 nM; in assay [2], 101 nM.
